We go through three compounds from patent US20200345725A1, “Methods and Compositions for Treating Cancer” (Omeros Corporation, priority 2019, published 2020).

Common to all, as to type: cell-based
One assay addresses GPR174 (Homo sapiens, UniProt Q9BXC1). Briefly: GPR174 signaling assays with adenosine receptor inhibitors (data not shown). Also on record: host or cells: HEK293 or CHO cell lines (ATCC). An excerpt: It should be noted that the A2aR inhibitors tested belong to four distinct chemical classes and that none of them affects GPR174 signaling when tested in signaling assays (data not shown).

Another assay has as its target T1, A2bR (Homo sapiens, UniProt P29275).
T1 construct: host or cells: HEK293
T1 sequence (P29275 1-332): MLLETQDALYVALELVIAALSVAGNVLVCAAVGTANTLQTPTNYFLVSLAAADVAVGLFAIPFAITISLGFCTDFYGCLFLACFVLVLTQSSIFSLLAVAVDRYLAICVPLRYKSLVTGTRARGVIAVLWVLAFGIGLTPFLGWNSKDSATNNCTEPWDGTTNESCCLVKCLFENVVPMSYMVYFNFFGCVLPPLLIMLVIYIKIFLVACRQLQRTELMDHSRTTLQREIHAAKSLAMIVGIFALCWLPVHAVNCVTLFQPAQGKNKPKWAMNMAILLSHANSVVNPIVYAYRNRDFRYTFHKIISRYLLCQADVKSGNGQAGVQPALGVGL
Briefly: Cre-luciferase reporter assay, HEK293 cells transfected with A2bR. To be noted: overnight incubation; read-out: A2B (IC50 nM).

In another assay the target is T2, ADBR2 (Homo sapiens, UniProt P07550).
T2 construct: host or cells: HEK293 or CHO cell lines (ATCC)
Briefly: GloSensor cAMP assay with ADBR2. In general terms: Cyclic AMP is a second messenger, typically raised through Gs and lowered through Gi signalling.

A further assay addresses T3, wild-type GPR174 (Homo sapiens, UniProt Q9BXC1).
T3 construct: expressed in transfected cells; host or cells: HEK293
Briefly: GloSensor Gs signaling by phospholipids, HEK293 cells expressing wild-type GPR174. To be noted: 10 nM to 10,000 nM. Here is the method:
(§1) Unilamellar liposomes of phosphatidylserine (PS) and other phospholipids were prepared by hydration in PBS and extrusion at 50-54° C. through a 0.1 micron filter using a mini-extruder (Avanti). Lysophosphatidylserine (Lyso-PS) is soluble.
(§2) HEK293 cells were grown in 6-well plates and transfected using Lipofectamine 2000 (Thermo Fisher Scientific) with 300 ng/well of cAMP biosensor expressing plasmid pGlo22F (Promega) and 2 ng of a plasmid expressing wild-type GPR174 or 2 ng of a plasmid expressing a GPR174 mutant with lowered basal activity, referred to as “GPR174-v38.”
5-6 hours after transfection, the cells were trypsinized and plated at a density of 5000 cells/well into 96-well plates and incubated overnight. The next day, the culture medium was replaced with 100 μL/well of serum free medium X-vivo15 (Lonza) with 2% GloSensor Assay reagent (Promega). The plates were incubated for 1 hour at room temperature and measured in a luminometer to obtain the pre-compound values. […] The plates were measured in a luminometer to obtain the post-compound addition measurement. The ratio of post-compound addition to pre-compound addition measurements (i.e., the extent of Glosensor signal induction by an agonist) was determined. […]

For a further assay, the target named is GPR174-v38 (Homo sapiens, UniProt Q9BXC1). Briefly: GloSensor Gs signaling by phospholipids, HEK293 cells expressing mutant GPR174-v38. The following applies: 10 nM to 10,000 nM. As to the method: as §1, §2
5-6 hours after transfection, the cells were trypsinized and plated at a density of 5000 cells/well into 96-well plates and incubated overnight. The next day, the culture medium was replaced with 100 μL/well of serum free medium X-vivo15 (Lonza) with 2% GloSensor Assay reagent (Promega). The plates were incubated for 1 hour at room temperature and measured in a luminometer to obtain the pre-compound values. […] The plates were measured in a luminometer to obtain the post-compound addition measurement. The ratio of post-compound addition to pre-compound addition measurements (i.e., the extent of Glosensor signal induction by an agonist) was determined.

T3 sequence (Q9BXC1 whole entry): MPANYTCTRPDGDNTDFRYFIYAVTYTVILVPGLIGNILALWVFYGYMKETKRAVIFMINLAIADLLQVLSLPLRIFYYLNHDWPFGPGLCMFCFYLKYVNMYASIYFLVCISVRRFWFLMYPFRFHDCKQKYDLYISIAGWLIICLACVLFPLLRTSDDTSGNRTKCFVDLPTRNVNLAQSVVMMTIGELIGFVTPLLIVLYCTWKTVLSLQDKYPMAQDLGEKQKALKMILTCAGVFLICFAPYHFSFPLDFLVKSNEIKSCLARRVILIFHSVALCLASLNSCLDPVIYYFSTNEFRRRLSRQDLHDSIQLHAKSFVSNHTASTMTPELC
Chain of GPR174 (Q9BXC1 whole entry, species assumed): as the sequence (Q9BXC1 whole entry) above

Consider `CCCn1c(=O)c2[nH]c(-c3ccc(OCC(=O)Nc4ccc(C#N)cc4)cc3)nc2n(CCC)c1=O` [MRS-1754], for which the “effect on GPR174 signaling” value at GPR174 is reported as “did not affect GPR174 signaling”. One may read the IC50 as the concentration at which inhibition is half-maximal. In the case of `Nc1nc(-n2cccn2)nc(-n2cccn2)c1Br` [PBF-509], on A2bR, the IC50 was found to be 680 nM. On to lysophosphatidylserine [LysoPS], for which the “Gs signaling in the presence of ADBR (GloSensor, FIG. 21B)” value at ADBR2 is reported as “neither compound 4 nor LysoPS modulate Gs signaling”. Besides, the “GPR174 Gs signaling, wild-type GPR174 (FIG. 45A)” value at wild-type GPR174 is listed as “stimulate GPR174 Gs signaling in a concentration-dependent manner”. The “GPR174 Gs signaling, mutant GPR174-v38 (FIG. 45B)” value at GPR174-v38 was “stimulate GPR174 Gs signaling in a concentration-dependent manner”.
